From patent US11299478B2, “2-cyanopyrimidin-4-yl carbamate or urea derivative or salt thereof, and pharmaceutical composition including same” (HANLIM PHARMACEUTICAL CO., LTD., priority 2018, dated 2022) come the findings set out here.

SMILES strings stand for the structures. A value given as a limit tells only on which side of the number the result lay.

What all share (format): biochemical
One experiment concerns the target T1, cathepsin K (Homo sapiens, UniProt P43235).
T1 sequence (P43235 115-329): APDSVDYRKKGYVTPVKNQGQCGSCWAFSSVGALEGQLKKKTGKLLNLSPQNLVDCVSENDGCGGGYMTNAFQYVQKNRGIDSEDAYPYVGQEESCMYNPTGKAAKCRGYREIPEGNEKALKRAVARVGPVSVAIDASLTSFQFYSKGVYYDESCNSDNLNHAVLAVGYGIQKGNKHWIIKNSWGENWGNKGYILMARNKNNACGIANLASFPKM
The experiment in a line: Inhibitory activity assay against cathepsin K (enzyme assay). The conditions noted are these: Z-Phe-Arg-AMC 10 μM, enzyme 1 nM, pH 5.5, 30 minutes. In a few lines:
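Fluorogenic assay with 1 nM cathepsin K and 10 μM Z-Phe-Arg-AMC in pH 5.5 buffer (50 mM MES, 2 mM DTT, 2.5 mM EDTA, 0.01% Triton X-100, 10% DMSO). Ten compound concentrations, 10.0 to 0.000508 μM; 30 min reaction, ex 355/em 460 nm; IC50 by 4-parameter logistic fit.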

A further experiment addresses cathepsin B (Homo sapiens, UniProt P07858). The experiment in a line: Inhibitory activity assay against cathepsin B (enzyme assay). The conditions noted are these: Z-Arg-Arg-AMC 40 μM, enzyme 1 nM, pH 6.0, 90 minutes. In a few lines:
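1 nM enzyme with 40 μM Z-Arg-Arg-AMC and compound (10.0 μM down to 0.000508 μM, 10 points) in pH 6.0 buffer of 50 mM MES, 5 mM DTT, 2.5 mM EDTA, 0.005% Polysorbate 20, 10% DMSO. Fluorescence (340/460 nm) read after 90 min; IC50 by 4-parameter logistic fit.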

A further experiment concerns the target cathepsin L (Homo sapiens, UniProt P07711). The experiment in a line: Inhibitory activity assay against cathepsin L (enzyme assay). To be noted: Z-Phe-Arg-AMC 2 μM, enzyme 3 nM, pH 5.5, 30 minutes. The gist of the method: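 Enzyme at 3 nM with 2 μM Z-Phe-Arg-AMC in 50 mM MES pH 5.5, 2.5 mM DTT, 2.5 mM EDTA, 0.005% Polysorbate 20, 10% DMSO; 30 min reaction, AMC fluorescence 340/460 nm. Ten-point series 10.0 μM to 0.000508 μM; IC50 by 4-parameter logistic fit.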

A further experiment addresses cathepsin S (Homo sapiens, UniProt P25774). The experiment in a line: Inhibitory activity assay against cathepsin S (enzyme assay). To be noted: Z-Phe-Arg-AMC 70 μM, enzyme 3 nM, pH 6.5, 45 minutes. The gist of the method: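 Cathepsin S (3 nM final) with Z-Phe-Arg-AMC substrate (70 μM final) in pH 6.5 buffer of 50 mM MES, 2.5 mM DTT, 1.0 mM EDTA, 0.001% BSA, 10% DMSO; compound 10.0 μM down to 0.000508 μM, 10 points. Fluorescence (ex 340/em 460 nm) after 45 min; IC50 by 4-parameter logistic fit.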

Sequence of cathepsin L (P07711 114-333, species assumed): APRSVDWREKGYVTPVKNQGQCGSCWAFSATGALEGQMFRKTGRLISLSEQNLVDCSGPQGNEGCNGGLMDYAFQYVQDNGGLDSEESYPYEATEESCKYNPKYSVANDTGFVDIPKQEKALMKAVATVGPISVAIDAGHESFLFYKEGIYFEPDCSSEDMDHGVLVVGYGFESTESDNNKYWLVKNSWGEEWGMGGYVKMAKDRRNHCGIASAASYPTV
Sequence of cathepsin S (P25774 115-331, species assumed): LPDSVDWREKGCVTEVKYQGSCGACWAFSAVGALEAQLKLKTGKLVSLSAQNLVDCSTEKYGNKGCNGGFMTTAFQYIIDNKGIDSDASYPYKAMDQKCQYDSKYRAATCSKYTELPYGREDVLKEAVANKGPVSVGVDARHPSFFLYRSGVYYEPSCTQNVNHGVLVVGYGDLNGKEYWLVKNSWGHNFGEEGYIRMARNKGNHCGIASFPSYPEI

`Cc1ccccc1CNC(=O)NC1(c2ccnc(C#N)n2)CCCC1` [Example 46, 1-(1-(2-cyanopyrimidin-4-yl)cyclopentyl)-3-(2-methylbenzyl)urea]: the IC50 at cathepsin K was 13.2 nM; on cathepsin B it was > 10000 nM; against cathepsin L it was 5970 nM; on cathepsin S it was > 10000 nM.
As for `N#Cc1nccc(C2(NC(=O)Nc3ccc(-c4ccc(CCC(=O)O)cc4)cc3)CCCCC2)n1` [Example 131, 3-(4′-(3-(1-(2-cyanopyrimidin-4-yl)cyclohexyl)ureido)-[1,1′-biphenyl]-4-yl)propanoic acid], the IC50 is 15.9 nM at cathepsin K, > 10000 nM against cathepsin B, > 10000 nM at cathepsin L and 3930 nM on cathepsin S.
With `COCc1ccc(C(F)(F)F)cc1NC(=O)NC1(c2ccnc(C#N)n2)CCCCC1` [Example 107, 1-(1-(2-cyanopyrimidin-4-yl)cyclohexyl)-3-(2-(methoxymethyl)-5-(trifluoromethyl)phenyl)urea], the IC50 at cathepsin K was 6.8 nM; against cathepsin B it was > 10000 nM; against cathepsin L, 1470 nM; against cathepsin S it was 4750 nM.
Turning to `Cc1ccc(C(F)(F)F)cc1NC(=O)NC1(c2ccnc(C#N)n2)CCCC1` [Example 66, 1-(1-(2-cyanopyrimidin-4-yl)cyclopentyl)-3-(2-methyl-5-(trifluoromethyl)phenyl)urea], the IC50 on cathepsin K is 3.4 nM; at cathepsin B, > 10000 nM; on cathepsin L it was > 10000 nM; on cathepsin S it was > 10000 nM.
As for `N#Cc1nccc(C2(NC(=O)Nc3ccc(-c4ccc(C(=O)NC5CC5)cc4)cc3)CCCCC2)n1` [Example 149, 4′-(3-(1-(2-cyanopyrimidin-4-yl)cyclohexyl)ureido)-N-cyclopropyl-[1,1′-biphenyl]-4-carboxamide], the IC50 on cathepsin K is 6.4 nM; against cathepsin B it was > 10000 nM; at cathepsin L, > 10000 nM; at cathepsin S it was 7300 nM.
Turning to `CS(=O)(=O)c1ccc(-c2ccc(NC(=O)NC3(c4ccnc(C#N)n4)CCCCC3)cc2)cc1C(F)(F)F` [Example 171, 1-(1-(2-cyanopyrimidin-4-yl)cyclohexyl)-3-(4′-(methylsulfonyl)-3′-(trifluoromethyl)-[1,1′-biphenyl]-4-yl)urea], the IC50 at cathepsin K was 24 nM; against cathepsin B, > 10000 nM; on cathepsin L, > 10000 nM; at cathepsin S it was 2190 nM.
For `N#Cc1nccc(C2(NC(=O)Nc3ccc(F)c(C(F)(F)F)c3)CCCCC2)n1` [Example 96, 1-(1-(2-cyanopyrimidin-4-yl)cyclohexyl)-3-(4-fluoro-3-(trifluoromethyl)phenyl)urea], the IC50 at cathepsin K was 10.2 nM; against cathepsin B it was > 10000 nM; against cathepsin L it was 6500 nM; against cathepsin S, > 10000 nM.
For the compound `CC(=O)N1CCN(c2ccc(-c3ccc(NC(=O)NC4(c5ccnc(C#N)n5)CCCCC4)cc3)cc2)CC1` [Example 155, 1-(4′(4-acetylpiperazin-1-yl)-[1,1′-biphenyl]-4-yl)-3-(1-(2-cyanopyrimidin-4-yl)cyclohexyl)urea], the IC50 on cathepsin K was 2 nM; against cathepsin B, 7340 nM; against cathepsin L it was > 10000 nM; against cathepsin S it was > 10000 nM.
Take `N#Cc1nccc(C2(NC(=O)OCc3cccc(C(F)(F)F)c3)CCCCC2)n1` [Example 14, 3-(trifluoromethyl)benzyl (1-(2-cyanopyrimidin-4-yl)cyclohexyl)carbamate]: the IC50 was 3700 nM at cathepsin K, > 10000 nM at cathepsin B, 9230 nM against cathepsin L and > 10000 nM on cathepsin S.
For the compound `N#Cc1nccc(C2(NC(=O)Nc3ccc(-c4ccc(C(=O)NCCc5c[nH]cn5)cc4)c(C(F)(F)F)c3)CCCCC2)n1` [Example 189, N-(2-(1H-imidazol-4-yl)ethyl)-4′-(3-(1-(2-cyanopyrimidin-4-yl)cyclohexyl)ureido)-2′-(trifluoromethyl)-[1,1′-biphenyl]-4-carboxamide], the IC50 at cathepsin K was 0.6 nM; at cathepsin B it was 5400 nM; against cathepsin L it was 1190 nM; against cathepsin S it was > 10000 nM.
Taken in the same sequence, the figures for `COCCOCc1ccc(-c2ccc(NC(=O)NC3(c4ccnc(C#N)n4)CCCCC3)cc2)cc1` [Example 157, 1-(1-(2-cyanopyrimidin-4-yl)cyclohexyl)-3-(4′-((2-methoxyethoxy)methyl)-[1,1′-biphenyl]-4-yl)urea] were 6.4 nM, > 10000 nM, > 10000 nM and 4620 nM.
Taken in the same sequence, the figures for `CC(C)N1CCN(c2ccc(-c3ccc(NC(=O)NC4(c5ccnc(C#N)n5)CCCCC4)cc3F)cc2)CC1` [Example 166, 1-(1-(2-cyanopyrimidin-4-yl)cyclohexyl)-3-(2-fluoro-4′-(4-isopropylpiperazin-1-yl)-[1,1′-biphenyl]-4-yl)urea] were 0.4 nM, 2410 nM, 3440 nM and 5940 nM.
Taken in the same sequence, the figures for `N#Cc1nccc(C2(NC(=O)OCc3ccc(Br)cc3)CCCC2)n1` [Example 2, 4-bromobenzyl (1-(2-cyanopyrimidin-4-yl)cyclopentyl)carbamate] were 21.8 nM, > 10000 nM, > 10000 nM and > 10000 nM.
On to `CS(=O)(=O)c1ccc(-c2ccc(NC(=O)NC3(c4ccnc(C#N)n4)CCCCC3)cc2)cc1F` [Example 170, 1-(1-(2-cyanopyrimidin-4-yl)cyclohexyl)-3-(3′-fluoro-4′-(methylsulfonyl)-[1,1′-biphenyl]-4-yl)urea], for which the IC50 is 39.5 nM on cathepsin K, > 10000 nM against cathepsin B, > 10000 nM at cathepsin L and > 10000 nM against cathepsin S.
Consider `N#Cc1nccc(C2(NC(=O)Nc3cc(C(F)(F)F)c(F)cc3F)CCCCC2)n1` [Example 106, 1-(1-(2-cyanopyrimidin-4-yl)cyclohexyl)-3-(2,4-difluoro-5-(trifluoromethyl)phenyl)urea], for which the IC50 at cathepsin K was 3.1 nM; on cathepsin B it was > 10000 nM; on cathepsin L it was > 10000 nM; on cathepsin S, > 10000 nM.
As for `CS(=O)(=O)c1ccc(-c2ccc(NC(=O)NC3(c4ccnc(C#N)n4)CCCCC3)cc2F)cc1` [Example 167, 1-(1-(2-cyanopyrimidin-4-yl)cyclohexyl)-3-(2-fluoro-4′-(methylsulfonyl)-[1,1′-biphenyl]-4-yl)urea], the IC50 is 8 nM at cathepsin K, > 10000 nM at cathepsin B, > 10000 nM against cathepsin L and 1110 nM against cathepsin S.
Consider `CC(NC(=O)NC1(c2ccnc(C#N)n2)CCCC1)c1ccccc1` (stereo not drawn) [Example 51, 1-(1-(2-cyanopyrimidin-4-yl)cyclopentyl)-3-(1-phenylethyl)urea], for which the IC50 is 38.8 nM on cathepsin K, > 10000 nM at cathepsin B, 4170 nM against cathepsin L and > 10000 nM at cathepsin S.
With `N#Cc1nccc(C2(NC(=O)Nc3ccc(Cl)c(C(F)(F)F)c3)CCCCC2)n1` [Example 93, 1-(4-chloro-3-(trifluoromethyl)phenyl)-3-(1-(2-cyanopyrimidin-4-yl)cyclohexyl)urea], the IC50 is 23.9 nM on cathepsin K, > 10000 nM against cathepsin B, > 10000 nM on cathepsin L and > 10000 nM on cathepsin S.
